Reference: patent publication US20140294745A1, “CORAL EXTRACT FOR SKIN WHITENING, MOISTURE RETENTION, ELASTICITY IMPROVEMENT, ANTI-INFLAMMATION AND OCCLUSION OF WOUNDS AND EXTRACTING METHOD THEREOF” (UNI-PRESIDENT BIOTECH CO., LTD., priority 2013, published 2014)

Key:
[1] = test system: zebra fishes (AB strain Danio rerio); assay: Whitening activity analysis in vivo (zebra fish melanin); settings: 20 mM; immersed forty-eight hours
Description: The test uses zebra fishes (AB strain Danio rerio), in which fish edge is above four months, as test brood fishes, and the fishes are bred in an acrylic water tank having a filter and a circulation system. Water temperature is controlled at 28.5 degrees Celsius, and light-dark cycle is respectively controlled at fourteen and ten hours.
The medicine to be tested must be dissolved in 100% DMSO solution, and finally concentration must also concern DMSO and medicine concentration.
Embryos that have been fertilized for nine hours is taken and injected into a 96 well culture dish, and three embryos and 100 μl Hank's buffer are disposed in each well. 100 μl taken from the prepared medicine is injected into each well, and after adequately and uniformly mixing the mixture, an orifice plate is covered to avoid draining water content away to change the concentration. […]
Obtained fish images are opened by image processing software (Image J 1.43 g; National Institute of Health, Bethesda, Md., U.S.A.), and under ranges where the minimum threshold is set at 0, and where the maximum threshold is set at 85, melanin of each group of zebra fishes is performed with quantitative analysis.

Mushroom tyrosinase = Mushroom tyrosinase inhibition capability analysis; format: biochemical; settings: positive control, 100 μM
Experimental: In a 96 well plate, 70 μl PBS, 20 μl specimen solution having different concentrations is added into each pore, and the mixture is uniformly mixed. Next, 10 μl 12U tyrosinase is added to place the plate in the cultivation chest at 37 degrees Celsius to react for thirty minutes. 10 μl 15 mM L-dopa is further added, and after continuously placing the plate in the cultivation chest to react for thirty minutes, the variance of absorbance is measured at 492 nm wavelengths. By taking H2O or 50% EtOH as the control group, the anti-oxidation rate of the object to be tested is obtained by inhibition of tyrosinase % (IT %) as the following formula. When peroxidation rate of lipid inhibition is higher, antioxidative function is stronger. Inhibition of tyrosinase %, IT %=[1−(absorbance of sample at 492 nm)/(absorbance of the control group that is not added with samples at 492 nm)]×100.

Row | Mushroom tyrosinase inhibition capability (Mushroom tyrosinase) | Structure (SMILES) | melanin content of zebra fishes [1]
1 | – | OC[C@H]1O[C@@H](Oc2ccc(O)cc2)[C@H](O)[C@@H](O)[C@@H]1O [arbutin] | 50%
2 | 38.0 ± 0.4% | O=C1O[C@H]([C@@H](O)CO)C(O)=C1O [vitamin C] | –
